Assay results taken from patent US7884127B2, “Inhibitors of cyclin dependent kinases and their use” (Pirimal Life Sciences Ltd., priority 2002, dated 2011).

Compound	melting point
CN1CC[C@@H](c2c(O)cc(O)c3c(=O)cc(-c4cccs4)oc23)[C@@H]1CO [Example 68, (+)-trans-5,7-Dihydroxy-8-(2-hydroxymethyl-1-methyl-pyrrolidin-3-yl)-2-thiophen-2-yl-chromen-4-one]	218 to 220 °C
Cc1cc(C#N)ccc1-c1cc(=O)c2c(O)cc(O)c([C@@H]3CCN(C)[C@H]3CO)c2o1 [Example 60, (+)-trans-4-[5,7-Dihydroxy-8-(2-hydroxymethyl-1-methyl-pyrrolidin-3-yl)-4-oxo-4H-chromen-2-yl]-3-methyl-benzonitrile]	145 to 147 °C
CNc1ccc(Cl)c(-c2cc(=O)c3c(O)cc(O)c([C@@H]4CCN(C)[C@H]4CO)c3o2)c1 (racemic) [Example 102, (±)-trans-2-(2-Chloro-5-methylamino-phenyl)-5,7-dihydroxy-8-(2-hydroxymethyl-1-methyl-pyrrolidin-3-yl)-chromen-4-one]	208 to 210 °C
CN1CC[C@@H](c2c(O)cc(O)c3c(=O)cc(-c4cccnc4Cl)oc23)[C@@H]1CO [Example 90, (+)-trans-2-(2-Chloro-pyridin-3-yl)-5,7-dihydroxy-8-(2-hydroxymethyl-1-methyl-pyrrolidin-3-yl)-chromen-4-one]	125 to 127 °C
COc1cc(OC)c2c(=O)cc(-c3ccc(C(F)(F)F)cc3)oc2c1[C@@H]1CCN(C)[C@H]1CO (racemic) [Example 62, (±)-trans-8-(2-Hydroxymethyl-1-methyl-pyrrolidin-3-yl)-5,7-dimethoxy-2-(4-trifluoromethyl-phenyl)-chromen-4-one]	114 to 115 °C
CN1CC[C@@H](c2c(O)cc(O)c3c(=O)cc(-c4cc(F)ccc4Cl)oc23)[C@@H]1CO (racemic) [Example 23, (±)-trans-2-(2-Chloro-5-fluoro-phenyl)-5,7-dihydroxy-8-(2-hydroxymethyl-1-methyl-pyrrolidin-3-yl)-chromen-4-one]	253 to 254 °C
CN1CC[C@@H](c2c(O)cc(O)c3c(=O)cc(-c4ccc(C(F)(F)F)cc4)oc23)[C@@H]1CO [Example 65, (+)-trans-5,7-Dihydroxy-8-(2-hydroxymethyl-1-methyl-pyrrolidin-3-yl)-2-(4-trifluoromethyl-phenyl)-chromen-4-one]	235 to 237 °C
CN1CC[C@@H](c2c(O)cc(O)c3c(=O)cc(-c4ccc([N+](=O)[O-])cc4)oc23)[C@@H]1CO [Example 92, (+)-trans-5,7-Dihydroxy-8-(2-hydroxymethyl-1-methyl-pyrrolidin-3-yl)-2-(4-nitro-phenyl)-chromen-4-one]	275 to 277 °C
CN1CC[C@@H](c2c(O)cc(O)c3c(=O)cc(-c4ccccc4Cl)oc23)[C@@H]1CN (racemic) [Example 109, (±)-trans-8-(2-Aminomethyl-1-methyl-pyrrolidin-3-yl)-2-(2-chloro-phenyl)-5,7-dihydroxy-chromen-4-one]	218 to 219 °C
CN1CC[C@@H](c2c(O)cc(O)c3c(=O)cc(-c4ccccc4O)oc23)[C@@H]1CO (racemic) [Example 96, (±)-trans-5,7-Dihydroxy-8-(2-hydroxymethyl-1-methyl-pyrrolidin-3-yl)-2-(2-hydroxy-phenyl)-chromen-4-one]	212 to 213 °C
CN1CC[C@@H](c2c(O)cc(O)c3c(=O)cc(-c4ccccc4Cl)oc23)[C@@H]1Cn1ccnc1 (racemic) [Example 113, (±)-trans-2-(2-Chloro-phenyl)-5,7-dihydroxy-8-(2-imidazol-1-ylmethyl-1-methyl-pyrrolidin-3-yl)-chromen-4-one]	249 to 250 °C
CN1CC[C@@H](c2c(O)cc(O)c3c(=O)cc(-c4ccc(N)cc4)oc23)[C@@H]1CO [Example 94, (+)-trans-2-(4-Amino-phenyl)-5,7-dihydroxy-8-(2-hydroxymethyl-1-methyl-pyrrolidin-3-yl)-chromen-4-one]	172 to 174 °C
CN1CC[C@@H](c2c(O)cc(O)c3c(=O)cc(-c4ccccc4I)oc23)[C@@H]1CO [Example 19, (+)-trans-5,7-Dihydroxy-8-(2-hydroxymethyl-1-methyl-pyrrolidin-3-yl)-2-(2-iodo-phenyl)-chromen-4-one]	233 to 235 °C
Cc1ccc(Cl)c(-c2cc(=O)c3c(O)cc(O)c([C@@H]4CCN(C)[C@H]4CO)c3o2)c1 [Example 38, (+)-trans-2-(2-Chloro-5-methyl-phenyl)-5,7-dihydroxy-8-(2-hydroxymethyl-1-methyl-pyrrolidin-3-yl)-chromen-4-one]	206 to 208 °C
COc1cc(OC)c2c(=O)cc(-c3ccc(C#N)cc3)oc2c1[C@@H]1CCN(C)[C@H]1CO (racemic) [Example 81, (±)-trans-4-[8-(2-Hydroxymethyl-1-methyl-pyrrolidin-3-yl)-5,7-dimethoxy-4-oxo-4H-chromen-2-yl]-benzonitrile]	214 to 216 °C
COc1cc(OC)c2c(=O)cc(-c3ccccc3Cl)oc2c1[C@@H]1CCN(C)[C@H]1CO [Example 13, (+)-trans-2-(2-Chloro-phenyl)-8-(2-hydroxymethyl-1-methyl-pyrrolidin-3-yl)-5,7-dimethoxy-chromen-4-one]	91 to 93 °C
CN1CC[C@@H](c2c(O)cc(O)c3c(=O)cc(-c4ccccc4)oc23)[C@@H]1CO [Example 57, (+)-trans-5,7-Dihydroxy-8-(2-hydroxymethyl-1-methyl-pyrrolidin-3-yl)-2-phenyl-chromen-4-one]	212 to 215 °C
CN1CC[C@@H](c2c(O)cc(O)c3c(=O)cc(-c4ccccc4Cl)oc23)[C@@H]1CC#N (racemic) [Example 111, (±)-trans-{3-[2-(2-Chloro-phenyl)-5,7-dihydroxy-4-oxo-4H-chromen-8-yl]-1-methyl-pyrrolidin-2-yl}-acetonitrile]	107 to 108 °C
CN1CC[C@@H](c2c(O)cc(O)c3c(=O)cc(-c4ccc(C(F)(F)F)cc4)oc23)[C@@H]1CO (racemic) [Example 63, (±)-trans-5,7-Dihydroxy-8-(2-hydroxymethyl-1-methyl-pyrrolidin-3-yl)-2-(4-trifluoromethyl-phenyl)-chromen-4-one]	238 °C
CN1CC[C@@H](c2c(O)cc(O)c3c(=O)cc(-c4ccc(Br)cc4Cl)oc23)[C@@H]1CO [Example 100, (+)-trans-2-(4-Bromo-2-chloro-phenyl)-5,7-dihydroxy-8-(2-hydroxymethyl-1-methyl-pyrrolidin-3-yl)-chromen-4-one]	155 to 156 °C
CCCN1CC[C@@H](c2c(O)cc(O)c3c(=O)cc(-c4ccccc4Cl)oc23)[C@@H]1CO (racemic) [Example 132, (±)-trans-2-(2-Chloro-phenyl)-5,7-dihydroxy-8-(2-hydroxymethyl-1-propyl-pyrrolidin-3-yl)-chromen-4-one]	94 to 96 °C
CN1CC[C@@H](c2c(O)cc(O)c3c(=O)cc(-c4ccccc4Cl)oc23)[C@@H]1CS (racemic) [Example 115, (±)-trans-2-(2-Chloro-phenyl)-5,7-dihydroxy-8-(2-mercaptomethyl-1-methyl-pyrrolidin-3-yl)-chromen-4-one]	205 to 206 °C
CN1CC[C@@H](c2c(O)cc(O)c3c(=O)cc(-c4cc(O)ccc4Cl)oc23)[C@@H]1CO.Cl	189 to 190 °C
